Measured values reported in ChEMBL document CHEMBL4837236, “Polyketides with Anti-neuroinflammatory Activity from Theissenia cinerea” (J Nat Prod, 2021).

Tests used:
BV-2 [1] = test: Cytotoxicity against mouse BV2 cells assessed as cell viability at 10 uM after 24 hrs by MTT assay; format: cell-based; conditions: bv-2, 24 h
BV-2 [2] = test: Antiinflammatory activity in mouse BV2 cells assessed as inhibition of LPS-induced NO-production by measuring NO level at 10 uM preincubated for 1 hr followed by LPS stimulation and measured after 24 hrs by microplate reader based colorimetric assay (reference value: 26.6 +/- 8.1 uM); format: functional
BV-2 [3] = test: Antiinflammatory activity in mouse BV2 cells assessed as inhibition of LPS-induced NO-production preincubated for 1 hr followed by LPS stimulation and measured after 24 hrs by microplate reader based colorimetric assay; format: functional, cell-based; conditions: for inhibition: time 25.0 hrs

| Compound | IC50 (BV-2 [3]) [µM] | Activity (BV-2 [1]) | NO level (BV-2 [2]) [µM] | inhibition (BV-2 [3]) |
| --- | --- | --- | --- | --- |
| CCC/C=C/C1=C(CO)[C@@H](O)[C@@H]2O[C@@H]2[C@@H]1O |  | Non-Toxic | 24.3 |  |
| CC(O)C/C=C/[C@H](O)[C@H](O)/C=C/c1cccc(O)c1CO (some centres undefined) |  | Non-Toxic | 26.6 |  |
| C/C=C/[C@H]1O[C@@H]2C(=C[C@H]1O)C(=O)O[C@@H]2C | 4.5 | Non-Toxic | 2.2 |  |
| C[C@@H]1OC(=O)c2c(O)ccc(O)c2[C@@H]1O |  | Non-Toxic | 28.9 |  |
| C/C=C/[C@@H]1O[C@H]2C(=C[C@H]1O)C(=O)O[C@@H]2C | 1.1 | Non-Toxic | 1.9 |  |
| C/C=C/[C@@H]1O[C@@H]2[C@@H](C)OC(=O)[C@]2(O)C[C@H]1O |  | Non-Toxic | 25.5 |  |

Now from value to molecule, other results behind:

| IC50 (BV-2 [3]) [µM] | Compound | Activity (BV-2 [1]) | NO level (BV-2 [2]) [µM] | inhibition (BV-2 [3]) |
| --- | --- | --- | --- | --- |
| 3.2 | COc1cc(O)c2c(c1)[C@H](O)[C@]13CO[C@H](O)[C@]1(O3)C2=O | Non-Toxic | 2.6 | Dose-Dependent Effect |
| 5 | COc1cc(O)c2c(c1)[C@H](O)[C@@]1(CO)O[C@@]1(CO)C2=O | Non-Toxic | 10.5 | Dose-Dependent Effect |
| 3 | COc1cc(/C=C/C(=O)CC(=O)/C=C/c2ccc(O)c(OC)c2)ccc1O [CURCUMIN] |  | 5.5 |  |
